Assay results taken from the supplement of paper PMC11061612.

Assays:
Assay in all cases: Bliss excess, mean over the matrix (fraction); higher = more synergy
[1] = test system: U-266 (Plasma Cell Myeloma)
Outline: (§1)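 Cell lines in DMEM/F12 or RPMI with 10% FBS were plated in 1536-well plates, held 24 hours at 37°C, 5% CO2, then given two-drug dose matrices for 72 hours (DMSO typically 0.2%). Viability was read by CellTiter-Glo 2.0 luminescence and scaled as inhibition from 0 (vehicle wells) to 1 (blank wells). Combination Emax is the second-highest inhibition in the matrix; Bliss excess is observed combination effect minus expected EA + EB − EA·EB, EA and EB being single-agent effects.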

[2] = test system: HCC2157 (Breast Carcinoma)
Outline: as §1

IGR-1 (Melanoma) = test system: IGR-1 (Melanoma)
Outline: as §1

[3] = test system: CFPAC-1 (Pancreatic Carcinoma)
Outline: as §1

[4] = test system: LU-99A (Non-Small Cell Lung Carcinoma)
Outline: as §1

CAL-78 (Chondrosarcoma) = test system: CAL-78 (Chondrosarcoma)
Outline: as §1

[5] = test system: NCI-H1793 (Lung Adenocarcinoma)
Outline: as §1

[6] = test system: SW1088 (Low Grade Glioma)
Outline: as §1

[7] = test system: KARPAS-620 (Plasma Cell Myeloma)
Outline: as §1

J82 (Bladder Carcinoma) = test system: J82 (Bladder Carcinoma)
Outline: as §1

[8] = test system: CTV-1 (T-Lymphoblastic Leukemia)
Outline: as §1

[9] = test system: COR-L95 (Small Cell Lung Carcinoma)
Outline: as §1

[10] = test system: COR-L23 (Non-Small Cell Lung Carcinoma)
Outline: as §1

[11] = test system: SNU-C5 (Colorectal Carcinoma)
Outline: as §1

[12] = test system: TGBC24TKB (Biliary Tract Carcinoma)
Outline: as §1

[13] = test system: SW756 (Cervical Carcinoma)
Outline: as §1

[14] = test system: KATOIII (Gastric Carcinoma)
Outline: as §1

[15] = test system: HT-29 (Colorectal Carcinoma)
Outline: as §1

[16] = test system: MDA-MB-231 (Breast Carcinoma)
Outline: as §1

[17] = test system: SW1990 (Pancreatic Carcinoma)
Outline: as §1

Row | SMILES | Bliss excess [1] | Bliss excess [2] | Bliss excess (IGR-1 (Melanoma)) | Bliss excess [3] | Bliss excess [4] | Bliss excess (CAL-78 (Chondrosarcoma)) | Bliss excess [5] | Bliss excess [6] | Bliss excess [7] | Bliss excess (J82 (Bladder Carcinoma)) | Bliss excess [8] | Bliss excess [9] | Bliss excess [10] | Bliss excess [11] | Bliss excess [12] | Bliss excess [13] | Bliss excess [14] | Bliss excess [15] | Bliss excess [16] | Bliss excess [17]
1 | COc1nnc2ccc(N3CCC(c4ccc(OCCN5CCN(C)C(=O)[C@H]5C)cc4)CC3)nn12 [AZD5153] + Cn1cnc2c(F)c(Nc3ccc(Br)cc3Cl)c(C(=O)NOCCO)cc21 [Selumetinib] (first compound max 1 µM, 7x7, partner max 10 µM) | 0.0347 | -0.0038 | 0.0544 | -0.0149 | -0.0118 | -0.0315 | 0.0212 | 0.029 | 0.112 | 0.014 | 0.0009 | -0.0561 | -0.0516 | -0.0116 | 0.158 | 0.0167 | -0.0294 | -0.0281 | 0.0516 | -0.0209
2 | Cc1c2c(nn1C)CSCc1cc(n(C)n1)CSc1cc(c3ccccc3c1)OCCCc1c(C(=O)O)n(C)c3c-2c(Cl)ccc13 [AZD5991] + C1CN(CCC1(C(=O)N[C@@H](CCO)C2=CC=C(C=C2)Cl)N)C3=NC=NC4=C3C=CN4 [Capivasertib] (first compound max 1 µM, 7x7, partner max 3 µM) | 0.0662 | -0.0488 | 0.0228 | 0.0021 | -0.0247 | 0.0091 | 0.0258 | -0.0562 | -0.0097 | -0.0046 | 0.0027 | 0.0071 | -0.0161 | 0.0007 | 0.0066 | -0.023 | -0.0267 | -0.0114 | -0.0495 | -0.0314
3 | Cc1c2c(nn1C)CSCc1cc(n(C)n1)CSc1cc(c3ccccc3c1)OCCCc1c(C(=O)O)n(C)c3c-2c(Cl)ccc13 [AZD5991] + C=CCn1c(=O)c2cnc(Nc3ccc(N4CCN(C)CC4)cc3)nc2n1-c1cccc(C(C)(C)O)n1 [AZD1775] (first compound max 1 µM, partner max 1 µM) | -0.0008 | -0.0438 | 0.061 | 0.0535 | 0.017 | -0.0193 | -0.0329 | -0.0307 | -0.0032 | -0.0372 | 0.0316 | -0.0637 | -0.0079 | 0.0145 | -0.0375 | -0.013 | -0.029 | -0.0045 | -0.0812 | -0.024
4 | Cc1c2c(nn1C)CSCc1cc(n(C)n1)CSc1cc(c3ccccc3c1)OCCCc1c(C(=O)O)n(C)c3c-2c(Cl)ccc13 [AZD5991] + CC1(C)CCC(CN2CCN(c3ccc(C(=O)NS(=O)(=O)c4ccc(NCC5CCOCC5)c([N+](=O)[O-])c4)c(Oc4cnc5[nH]ccc5c4)c3)CC2)=C(c2ccc(Cl)cc2)C1 [Venetoclax] (first compound max 1 µM, 7x7, partner max 1 µM) | 0.0759 | 0.0305 | 0.2 | -0.0112 | -0.0555 | -0.0118 | -0.0081 | -0.0187 | 0.119 | -0.0232 | -0.0011 | 0.0616 | -0.0178 | -0.0164 | -0.0051 | -0.0331 | -0.0176 | -0.0015 | 0.0126 | -0.0317
5 | Cc1c2c(nn1C)CSCc1cc(n(C)n1)CSc1cc(c3ccccc3c1)OCCCc1c(C(=O)O)n(C)c3c-2c(Cl)ccc13 [AZD5991] + CCN(CCO)CCCOc1ccc2c(Nc3cc(CC(=O)Nc4cccc(F)c4)[nH]n3)ncnc2c1 [AZD2811] (first compound max 1 µM, 7x7, partner max 1 µM) | 0.0482 | -0.0241 | 0.0316 | -0.0148 | 0.0252 | -0.0228 | -0.0255 | -0.0485 | 0.066 | 0.0288 | 0.0556 | 0.0028 | 0.0013 | 0.0247 | 0.0122 | 0.0141 | -0.0687 | 0.0498 | 0.0604 | 0.0159
6 | Cc1c2c(nn1C)CSCc1cc(n(C)n1)CSc1cc(c3ccccc3c1)OCCCc1c(C(=O)O)n(C)c3c-2c(Cl)ccc13 [AZD5991] + CN(C)CCCOc1ccc(-c2ccc3ncc4c(c3c2)n(C2CCOCC2)c(=O)n4C)cn1 [AZD0156] (first compound max 1 µM, 7x7, partner max 1 µM) | 0.0057 | -0.012 | -0.0219 | 0.0066 | -0.0175 | -0.0212 | 0.0332 | -0.0356 | 0.02 | 0.0127 | 0.0012 | -0.0328 | -0.0086 | 0.0157 | -0.0044 | -0.0015 | -0.0068 | 0.0078 | -0.0133 | 0.0159
